Key:
[1] = tested on: NF-κB p65; assay: ELISA based NF-κB p65 inhibitory assay in HeLa cells; format: cell-based; conditions: for NF-κB inhibition activity (in words): HeLa cells, p65 ELISA; for IC50: Homo sapiens, HeLa, read-out: NF-κB inhibitory activity IC50
[2] = tested on: Staphylococcus aureus; assay: Antimicrobial agar plate diffusion assay; format: cell-based
[3] = tested on: Bacillus subtilis; assay: Antimicrobial agar plate diffusion assay; format: cell-based
[4] = tested on: Escherichia coli; assay: Antimicrobial agar plate diffusion assay; format: cell-based
[5] = tested on: TAK1; conditions: reported previously; cited from earlier work

Compound	NF-κB inhibition activity (in words) [1]	IC50 [1]	MIC [2]	other results
C[C@H]1C/C=C\C(=O)[C@@H](O)[C@@H](O)C/C=C/c2cc(O)cc(O)c2C(=O)O1 [compound 1, 15-O-desmethyl-5Z-7-oxozeaenol]	sub-micromolar	–	–	–
COc1cc(O)c2c(c1)/C=C/C[C@H](O)[C@H](O)[C@@H](O)/C=C/C[C@H](C)OC2=O [compound 2, zeaenol]	–	> 50 µM	> 500 µg/mL	MIC [3]: > 500 µg/mL
COc1cc(O)c2c(c1)/C=C/C[C@H](O)[C@H](O)[C@H](O)/C=C/C[C@H](C)OC2=O [compound 3, 7-epi-zeaenol]	–	> 50 µM	–	MIC [4]: > 500 µg/mL
COc1cc(O)c2c(c1)/C=C/C[C@H](O)[C@H](O)C(=O)/C=C\C[C@H](C)OC2=O [compound 5, 5Z-7-oxozeaenol]	sub-micromolar	–	> 500 µg/mL	TAK1 inhibition [5]: potent inhibitor
CC1(C)S[C@@H]2[C@H](NC(=O)Cc3ccccc3)C(=O)N2[C@H]1C(=O)O [penicillin G, reference compound]	–	–	–	lowest concentration at which biological activity could be detected ([4]; positive controls): 100 μg/mL
